Source: PubChem BioAssay AID1259407 (Chemical Carcinogenesis Research Information System (CCRIS), 2018)
The source made the active and inactive calls. No rule for the calls is given here.

System: CCRIS mutagenicity, Ames/micronucleus/aberration tests
Experiment: CCRIS mutagenicity studies
[1] = Test System: AMES SALMONELLA TYPHIMURIUM, Strain/Indicator: TA100, Metabolic Activation: NONE, Method: PREINCUBATION
[2] = Test System: AMES SALMONELLA TYPHIMURIUM, Strain/Indicator: TA98, Metabolic Activation: NONE, Method: PREINCUBATION
[3] = Test System: AMES SALMONELLA TYPHIMURIUM, Strain/Indicator: TA1535, Metabolic Activation: NONE, Method: PREINCUBATION

C[C@]12CC[C@@H]3c4ccc(O)c(O)c4CC[C@H]3[C@@H]1CCC2=O
mutagenic call (Test System: Ames Salmonella typhimurium, Strain/Indicator: TA98, Metabolic Activation: None, Method: Standard plate): inactive; negative | mutagenic call (Test System: Ames Salmonella typhimurium, Strain/Indicator: TA98, Metabolic Activation: Rat, liver, S-9, Method: Standard plate): inactive; negative | mutagenic call (Test System: Ames Salmonella typhimurium, Strain/Indicator: TA100, Metabolic Activation: None, Method: Standard plate): inactive; negative | mutagenic call (Test System: Ames Salmonella typhimurium, Strain/Indicator: TA100, Metabolic Activation: Rat, liver, S-9, Method: Standard plate): inactive; negative

O=C1c2ccccc2C(=O)N1SC(Cl)(Cl)Cl
mutagenic call (Test System: AMES SALMONELLA TYPHIMURIUM, Strain/Indicator: TA98, Metabolic Activation: NONE, Method: STANDARD PLATE): inactive; negative | mutagenic call [1]: active; positive | mutagenic call (Test System: AMES SALMONELLA TYPHIMURIUM, Strain/Indicator: TA100, Metabolic Activation: RAT, LIVER, S-9, AROCLOR 1254, Method: STANDARD PLATE): active; positive | mutagenic call (Test System: AMES SALMONELLA TYPHIMURIUM, Strain/Indicator: TA100, Metabolic Activation: RAT, LIVER, S-9, Method: STANDARD PLATE): active; positive | mutagenic call (Test System: AMES SALMONELLA TYPHIMURIUM, Strain/Indicator: TA100, Metabolic Activation: S-9 MIX, Method: STANDARD PLATE): active; positive | mutagenic call (Test System: AMES SALMONELLA TYPHIMURIUM, Strain/Indicator: TA102, Metabolic Activation: NONE, Method: STANDARD PLATE): inactive; negative | mutagenic call (Test System: AMES SALMONELLA TYPHIMURIUM, Strain/Indicator: TA104, Metabolic Activation: NONE, Method: STANDARD PLATE): active; positive | mutagenic call (Test System: AMES SALMONELLA TYPHIMURIUM, Strain/Indicator: TA104, Metabolic Activation: RAT, LIVER, S-9, PHENOBARBITAL, Method: STANDARD PLATE): active; positive | mutagenic call (Test System: AMES SALMONELLA TYPHIMURIUM, Strain/Indicator: TA1535, Metabolic Activation: NONE, Method: STANDARD PLATE): active; positive | mutagenic call (Test System: AMES SALMONELLA TYPHIMURIUM, Strain/Indicator: TA1535, Metabolic Activation: RAT, LIVER, S-9, AROCLOR 1254, Method: STANDARD PLATE): active; positive | mutagenic call (Test System: E. COLI, Strain/Indicator: WP2, Metabolic Activation: NONE, Method: STANDARD PLATE): active; positive | mutagenic call (Test System: E. COLI, Strain/Indicator: WP2, Metabolic Activation: RAT, LIVER, S-9, Method: STANDARD PLATE): active; positive | mutagenic call (Test System: E. COLI, Strain/Indicator: WP2 UVRA, Metabolic Activation: NONE, Method: STANDARD PLATE): active; positive | mutagenic call (Test System: E. COLI, Strain/Indicator: WP2 UVRA, Metabolic Activation: RAT, LIVER, S-9, AROCLOR 1254, Method: STANDARD PLATE): active; positive

CCN(C(C)OC(C)=O)[N+](=O)[O-] (configuration not stated)
mutagenic call (Test System: E. COLI, Strain/Indicator: WP2 (HCR-), Metabolic Activation: NONE): active; positive

Cc1ccc2cc3c(ccc4ccccc43)c3c2c1C(O)C3 (configuration not stated)
mutagenic call (Test System: CHINESE HAMSTER V-79, Strain/Indicator: V-79/8-AZAGUANINE, Metabolic Activation: RAT, LIVER, S-9, AROCLOR 1254, Method: STANDARD PLATE): active; positive

NC(=O)CCCCC(N)=O
mutagenic call (Test System: AMES SALMONELLA TYPHIMURIUM, Strain/Indicator: TA98, Metabolic Activation: HAMSTER, LIVER, S-9, AROCLOR 1254, Method: PREINCUBATION): inactive; negative | mutagenic call [2]: inactive; negative | mutagenic call (Test System: AMES SALMONELLA TYPHIMURIUM, Strain/Indicator: TA98, Metabolic Activation: RAT, LIVER, S-9, AROCLOR 1254, Method: PREINCUBATION): inactive; negative | mutagenic call (Test System: AMES SALMONELLA TYPHIMURIUM, Strain/Indicator: TA100, Metabolic Activation: HAMSTER, LIVER, S-9, AROCLOR 1254, Method: PREINCUBATION): inactive; negative | mutagenic call [1]: inactive; negative | mutagenic call (Test System: AMES SALMONELLA TYPHIMURIUM, Strain/Indicator: TA100, Metabolic Activation: RAT, LIVER, S-9, AROCLOR 1254, Method: PREINCUBATION): inactive; negative | mutagenic call (Test System: AMES SALMONELLA TYPHIMURIUM, Strain/Indicator: TA1535, Metabolic Activation: HAMSTER, LIVER, S-9, AROCLOR 1254, Method: PREINCUBATION): inactive; negative | mutagenic call [3]: inactive; negative | mutagenic call (Test System: AMES SALMONELLA TYPHIMURIUM, Strain/Indicator: TA1535, Metabolic Activation: RAT, LIVER, S-9, AROCLOR 1254, Method: PREINCUBATION): inactive; negative | mutagenic call (Test System: AMES SALMONELLA TYPHIMURIUM, Strain/Indicator: TA1537, Metabolic Activation: HAMSTER, LIVER, S-9, AROCLOR 1254, Method: PREINCUBATION): inactive; negative | mutagenic call (Test System: AMES SALMONELLA TYPHIMURIUM, Strain/Indicator: TA1537, Metabolic Activation: NONE, Method: PREINCUBATION): inactive; negative | mutagenic call (Test System: AMES SALMONELLA TYPHIMURIUM, Strain/Indicator: TA1537, Metabolic Activation: RAT, LIVER, S-9, AROCLOR 1254, Method: PREINCUBATION): inactive; negative

N#CCC#N
mutagenic call (Test System: AMES SALMONELLA TYPHIMURIUM, Strain/Indicator: TA97, Metabolic Activation: HAMSTER, LIVER, S-9, AROCLOR 1254 (10%), Method: PREINCUBATION): inactive; negative | mutagenic call (Test System: AMES SALMONELLA TYPHIMURIUM, Strain/Indicator: TA97, Metabolic Activation: HAMSTER, LIVER, S-9, AROCLOR 1254 (30%), Method: PREINCUBATION): inactive; negative | mutagenic call (Test System: AMES SALMONELLA TYPHIMURIUM, Strain/Indicator: TA97, Metabolic Activation: NONE, Method: PREINCUBATION): inactive; negative | mutagenic call (Test System: AMES SALMONELLA TYPHIMURIUM, Strain/Indicator: TA97, Metabolic Activation: RAT, LIVER, S-9, AROCLOR 1254 (10%), Method: PREINCUBATION): inactive; negative | mutagenic call (Test System: AMES SALMONELLA TYPHIMURIUM, Strain/Indicator: TA97, Metabolic Activation: RAT, LIVER, S-9, AROCLOR 1254 (30%), Method: PREINCUBATION): inactive; negative | mutagenic call (Test System: AMES SALMONELLA TYPHIMURIUM, Strain/Indicator: TA98, Metabolic Activation: HAMSTER, LIVER, S-9, AROCLOR 1254 (10%), Method: PREINCUBATION): inactive; negative | mutagenic call (Test System: AMES SALMONELLA TYPHIMURIUM, Strain/Indicator: TA98, Metabolic Activation: HAMSTER, LIVER, S-9, AROCLOR 1254 (30%), Method: PREINCUBATION): inactive; negative | mutagenic call [2]: inactive; negative | mutagenic call (Test System: AMES SALMONELLA TYPHIMURIUM, Strain/Indicator: TA98, Metabolic Activation: RAT, LIVER, S-9, AROCLOR 1254 (10%), Method: PREINCUBATION): inactive; negative | mutagenic call (Test System: AMES SALMONELLA TYPHIMURIUM, Strain/Indicator: TA98, Metabolic Activation: RAT, LIVER, S-9, AROCLOR 1254 (30%), Method: PREINCUBATION): inactive; negative | mutagenic call (Test System: AMES SALMONELLA TYPHIMURIUM, Strain/Indicator: TA100, Metabolic Activation: HAMSTER, LIVER, S-9, AROCLOR 1254 (10%), Method: PREINCUBATION): inactive; negative | mutagenic call (Test System: AMES SALMONELLA TYPHIMURIUM, Strain/Indicator: TA100, Metabolic Activation: HAMSTER, LIVER, S-9, AROCLOR 1254 (30%), Method: PREINCUBATION): inactive; negative | mutagenic call [1]: inactive; negative | mutagenic call (Test System: AMES SALMONELLA TYPHIMURIUM, Strain/Indicator: TA100, Metabolic Activation: RAT, LIVER, S-9, AROCLOR 1254 (10 OR 30%), Method: PREINCUBATION): inactive; negative | mutagenic call (Test System: AMES SALMONELLA TYPHIMURIUM, Strain/Indicator: TA1535, Metabolic Activation: HAMSTER, LIVER, S-9, AROCLOR 1254 (10%), Method: PREINCUBATION): inactive; negative | mutagenic call (Test System: AMES SALMONELLA TYPHIMURIUM, Strain/Indicator: TA1535, Metabolic Activation: HAMSTER, LIVER, S-9, AROCLOR 1254 (30%), Method: PREINCUBATION): inactive; negative | mutagenic call [3]: inactive; negative | mutagenic call (Test System: AMES SALMONELLA TYPHIMURIUM, Strain/Indicator: TA1535, Metabolic Activation: RAT, LIVER, S-9, AROCLOR 1254 (10 OR 30%), Method: PREINCUBATION): inactive; negative

C/C=C1\CC(C)C(C)(OC(C)=O)C(=O)OCC2=C3C(CC[N+]3(C)C=C2)OC1=O (configuration not stated)
mutagenic call (Test System: AMES SALMONELLA TYPHIMURIUM, Strain/Indicator: TA100, Metabolic Activation: HAMSTER, LIVER, S-9, PCB, Method: PREINCUBATION): active; positive | mutagenic call (Test System: AMES SALMONELLA TYPHIMURIUM, Strain/Indicator: TA100, Metabolic Activation: RAT, LIVER, S-9, PCB, Method: PREINCUBATION): active; positive
